From patent publication US20070093520A1, “Method of treatment of diarrhea-predominant irritable bowel syndrome in a subject” (priority 2005, published 2007)

System: diarrhea-predominant IBS subjects
Experiment: 3007 Study: open-label 52-week safety study, adverse events and withdrawals
Details: C/C group

Cc1nccn1C[C@H]1CCc2c(c3cccc4c3n2CCC4)C1=O [cilansetron, (R)-(−)-4,5,6,8,9,10-hexahydro-10-[(2-methyl-1H-imidazol-1-yl)methyl]-11H-pyrido-[3,2,1-jk]-carbazol-11-one]
TEAE: Abdominal Therapeutic Procedures NEC: 0 n (%) | TEAE: Abdominoplasty: 0 n (%) | TEAE: Abnormal Chest Sounds NOS: 0 n (%) | TEAE: Acne NOS: 1 (<1%) n (%) | TEAE: Acnes: 1 (<1%) n (%) | TEAE: Acquired Hypothyroidism: 1 (<1%) n (%) | TEAE: Acrochordons: 0 n (%) | TEAE: Adenomyosis*: 1 (<1%) n (%) | TEAE: Age Related Issues: 0 n (%) | TEAE: Allergic Conditions NEC: 1 (<1%) n (%) | TEAE: Allergies to Foods, Food Additives, Drugs and Other Chemicals: 1 (<1%) n (%) | TEAE: Allergy to Insect Sting: 0 n (%) | TEAE: Alopecia: 0 n (%) | TEAE: Alopecias: 0 n (%) | TEAE: Amenorrhoea NOS*: 1 (<1%) n (%) | TEAE: Anaemia NOS: 0 n (%) | TEAE: Anaemias NEC: 0 n (%) | TEAE: Angina Pectoris: 3 (1%) n (%) | TEAE: Anorexia: 1 (<1%) n (%) | TEAE: Anxiety: 3 (1%) n (%) | TEAE: Anxiety Aggravated: 2 (<1%) n (%) | TEAE: Anxiety Symptoms: 5 (2%) n (%) | TEAE: Apocrine and Eccrine Gland Disorders: 0 n (%) | TEAE: Appetite Disorders: 1 (<1%) n (%) | TEAE: Arrhythmia NOS: 1 (<1%) n (%) | TEAE: Asthenic Conditions: 8 (3%) n (%) | TEAE: Asthma Aggravated: 1 (<1%) n (%) | TEAE: Asthma NOS: 1 (<1%) n (%) | TEAE: Atopic Disorders: 4 (2%) n (%) | TEAE: Atrial Fibrillation: 1 (<1%) n (%) | TEAE: Atrioventricular Block First Degree: 1 (<1%) n (%) | TEAE: Basal Cell Carcinoma: 2 (<1%) n (%) | TEAE: Behaviour and Socialisation Disturbances: 0 n (%) | TEAE: Benign Ovarian Tumour*: 0 n (%) | TEAE: Biliary Tract Disorder NOS: 0 n (%) | TEAE: Binocular Eye Movement Disorder NOS: 0 n (%) | TEAE: Bladder Disorders NEC: 0 n (%) | TEAE: Bladder Infections and Inflammations: 0 n (%) | TEAE: Bladder Prolapse: 0 n (%) | TEAE: Bladder and Urethral Symptoms: 6 (2%) n (%) | TEAE: Blood and Lymphatic System Disorders: 3 (1%) n (%) | TEAE: Bone Neoplasm Malignant: 1 (<1%) n (%) | TEAE: Bone Neoplasms Malignant (Excl Sarcomas): 1 (<1%) n (%) | TEAE: Bradyarrhythmia: 0 n (%) | TEAE: Breast Calcifications*: 0 n (%) | TEAE: Breast Cancer NOS*: 0 n (%) | TEAE: Breast Disorder NOS*: 0 n (%) | TEAE: Breast Disorders NEC*: 1 (<1%) n (%) | TEAE: Breast Mass NOS*: 1 (<1%) n (%) | TEAE: Breast and Nipple Neoplasms Malignant*: 0 n (%) | TEAE: Breath Sounds Decreased: 1 (<1%) n (%) | TEAE: Breathing Abnormalities: 2 (<1%) n (%) | TEAE: Bronchospasm and Obstruction: 3 (1%) n (%) | TEAE: Bruising, Ecchymosis and Purpura: 1 (<1%) n (%) | TEAE: Bundle Branch Block Right: 1 (<1%) n (%) | TEAE: Calculus Renal NOS: 3 (1%) n (%) | TEAE: Calculus Ureteric: 1 (<1%) n (%) | TEAE: Cardiac Conduction Disorders: 2 (<1%) n (%) | TEAE: Cardiac Disorders: 10 (4%) n (%) | TEAE: Cardiac Fibrillation NOS: 0 n (%) | TEAE: Cardiac Flutter: 0 n (%) | TEAE: Cardiac Signs and Symptoms NEC: 2 (<1%) n (%) | TEAE: Cataract Unilateral: 1 (<1%) n (%) | TEAE: Cataracts (Excl Congenital): 1 (<1%) n (%) | TEAE: Cerumen Impaction: 2 (<1%) n (%) | TEAE: Chest Discomfort: 0 n (%) | TEAE: Chest Pain: 3 (1%) n (%) | TEAE: Chest Tightness: 1 (<1%) n (%) | TEAE: Cholecystitis and Cholelithiasis: 2 (<1%) n (%) | TEAE: Cholelithiasis: 2 (<1%) n (%) | TEAE: Congenital, Familial and Genetic Disorders: 0 n (%) | TEAE: Conjunctival Infections, Irritations and Inflammations: 2 (<1%) n (%) | TEAE: Conjunctivitis: 1 (<1%) n (%) | TEAE: Conjunctivitis Allergic: 1 (<1%) n (%) | TEAE: Contusion: 1 (<1%) n (%) | TEAE: Cough: 5 (2%) n (%) | TEAE: Coughing and Associated Symptoms: 6 (2%) n (%) | TEAE: Cyst NOS: 1 (<1%) n (%) | TEAE: Cystitis Interstitial: 0 n (%) | TEAE: Dacryostenosis Acquired: 1 (<1%) n (%) | TEAE: Deafness NOS: 1 (<1%) n (%) | TEAE: Dehydration: 1 (<1%) n (%) | TEAE: Depression: 4 (2%) n (%) | TEAE: Depression Aggravated: 3 (1%) n (%) | TEAE: Depressive Disorders: 7 (3%) n (%) | TEAE: Dermal and Epidermal Conditions NEC: 1 (<1%) n (%) | TEAE: Dermatitis Allergic: 0 n (%) | TEAE: Dermatitis Ascribed to Specific Agent: 0 n (%) | TEAE: Dermatitis Contact: 1 (<1%) n (%) | TEAE: Dermatitis Medicamentosa: 0 n (%) | TEAE: Dermatitis NOS: 0 n (%) | TEAE: Dermatitis and Eczema: 2 (<1%) n (%) | TEAE: Dermographism: 0 n (%) | TEAE: Diabetes Mellitus (Incl Subtypes): 2 (<1%) n (%) | TEAE: Diabetes Mellitus Aggravated: 1 (<1%) n (%) | TEAE: Diabetes Mellitus Non-Insulin-Dependent: 1 (<1%) n (%) | TEAE: Disturbances in Initiating and Maintaining Sleep: 6 (2%) n (%) | TEAE: Drug Hypersensitivity: 1 (<1%) n (%) | TEAE: Dry Eye NOS: 2 (<1%) n (%) | TEAE: Dysfunctional Uterine Bleeding*: 1 (<1%) n (%) | TEAE: Dyshidrosis: 0 n (%) | TEAE: Dyspnoea NOS: 2 (<1%) n (%) | TEAE: Dysuria: 1 (<1%) n (%) | TEAE: Ear Disorders NEC: 1 (<1%) n (%) | TEAE: Ear Pain: 1 (<1%) n (%) | TEAE: Ear and Labyrinth Disorders: 6 (2%) n (%) | TEAE: Eczema: 1 (<1%) n (%) | TEAE: Elevated Cholesterol: 3 (1%) n (%) | TEAE: Endocrine Disorders: 2 (<1%) n (%) | TEAE: Endometriosis*: 2 (1%) n (%) | TEAE: Erythema: 1 (<1%) n (%) | TEAE: Erythemas: 1 (<1%) n (%) | TEAE: External Ear Disorders NEC: 2 (<1%) n (%) | TEAE: Eye Disorders: 8 (3%) n (%) | TEAE: Fall: 2 (<1%) n (%) | TEAE: Fatigue: 7 (3%) n (%) | TEAE: Fatigue Aggravated: 1 (<1%) n (%) | TEAE: Febrile Disorders: 2 (<1%) n (%) | TEAE: Fibroma NOS: 0 n (%) | TEAE: Fluid Intake Increased: 0 n (%) | TEAE: Fluid in Middle Ear: 1 (<1%) n (%) | TEAE: Flushing: 1 (<1%) n (%) | TEAE: Food Allergy: 0 n (%) | TEAE: General Disorders and Administration Site Conditions: 23 (9%) n (%) | TEAE: General Signs and Symptoms NEC: 6 (2%) n (%) | TEAE: Gilbert's Syndrome: 0 n (%) | TEAE: Glucose Tolerance Impaired: 0 n (%) | TEAE: Glycosuria: 0 n (%) | TEAE: Goitre: 1 (<1%) n (%) | TEAE: Gout: 2 (<1%) n (%) | TEAE: Haematoma NOS: 1 (<1%) n (%) | TEAE: Haematuria: 4 (2%) n (%) | TEAE: Hallucination NOS: 0 n (%) | TEAE: Hallucination, Auditory: 0 n (%) | TEAE: Hand Fracture: 0 n (%) | TEAE: Hearing Losses: 1 (<1%) n (%) | TEAE: Hepatitis NOS: 1 (<1%) n (%) | TEAE: Hepatobiliary Disorders: 4 (2%) n (%) | TEAE: Hepatobiliary Signs and Symptoms: 1 (<1%) n (%) | TEAE: Hepatocellular Damage and Hepatitis NEC: 1 (<1%) n (%) | TEAE: Hepatosplenomegaly NOS: 1 (<1%) n (%) | TEAE: Hernia NOS: 0 n (%) | TEAE: Hernia Repair NOS: 1 (<1%) n (%) | TEAE: Hernia Repairs: 1 (<1%) n (%) | TEAE: Hernias NEC: 0 n (%) | TEAE: Hot Flushes NOS: 1 (<1%) n (%) | TEAE: Hypercholesterolaemia: 3 (1%) n (%) | TEAE: Hyperglycaemia NOS: 0 n (%) | TEAE: Hyperglycaemic Conditions NEC: 0 n (%) | TEAE: Hyperkeratoses: 0 n (%) | TEAE: Hyperkeratosis: 0 n (%) | TEAE: Hyperlipidaemia NOS: 1 (<1%) n (%) | TEAE: Hyperlipidaemias NEC: 1 (<1%) n (%) | TEAE: Hypersensitivity NOS: 1 (<1%) n (%) | TEAE: Hypertension Aggravated: 1 (<1%) n (%) | TEAE: Hypertension NOS: 7 (3%) n (%) | TEAE: Hypotension NOS: 0 n (%) | TEAE: Immune System Disorders: 5 (2%) n (%) | TEAE: Inborn Errors of Bilirubin Metabolism: 0 n (%) | TEAE: Influenza Like Illness: 3 (1%) n (%) | TEAE: Ingrowing Nail: 0 n (%) | TEAE: Inner Ear Disorders NEC: 1 (<1%) n (%) | TEAE: Inner Ear Infections and Inflammations: 2 (<1%) n (%) | TEAE: Inner Ear Signs and Symptoms: 1 (<1%) n (%) | TEAE: Insomnia: 5 (2%) n (%) | TEAE: Insomnia Exacerbated: 1 (<1%) n (%) | TEAE: Intermenstrual Bleeding*: 1 (<1%) n (%) | TEAE: Irritability: 0 n (%) | TEAE: Ischaemic Coronary Artery Disorders: 4 (2%) n (%)
